Experimental findings from patent US20190055279A1, “NOVEL POLYPEPTIDES WITH IMPROVED PROTEOLYTIC STABILITY, AND METHODS OF PREPARING AND USING SAME” (TUFTS UNIVERSITY, priority 2015, published 2019) are described below.

The structures appear in SMILES notation.

The target of the first test is T1, GLP-1R (Homo sapiens, UniProt P43220).
T1 construct: expressed in transfected cells; host or cells: HEK293
T1 sequence (P43220 24-463, species assumed): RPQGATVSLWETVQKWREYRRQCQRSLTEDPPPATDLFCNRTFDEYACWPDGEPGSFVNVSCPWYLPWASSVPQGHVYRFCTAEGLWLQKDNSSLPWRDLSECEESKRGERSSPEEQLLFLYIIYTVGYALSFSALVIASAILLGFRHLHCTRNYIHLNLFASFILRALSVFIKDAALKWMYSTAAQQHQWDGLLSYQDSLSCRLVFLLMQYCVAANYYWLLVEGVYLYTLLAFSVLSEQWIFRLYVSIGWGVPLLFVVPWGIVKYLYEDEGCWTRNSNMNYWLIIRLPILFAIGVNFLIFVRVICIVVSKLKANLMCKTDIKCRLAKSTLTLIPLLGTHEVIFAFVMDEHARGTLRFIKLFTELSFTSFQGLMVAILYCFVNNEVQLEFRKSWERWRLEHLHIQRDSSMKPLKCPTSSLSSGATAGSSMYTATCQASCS
Briefly: GLP-1R agonist assay: CRE6x-LUC luciferase reporter in transiently transfected HEK293 cells.
Conditions: not given
The class given is cell-based. Here is the method: Briefly, HEK293 cells were plated at a density of 2−3×10^3 cells per well onto clear-bottom, white, 96-well plates and grown for 2 days to ˜80% confluency. Cells were then transiently transfected by using Lipofectamine reagent (Invitrogen) with cDNA encoding (1) a GPCR (or empty expression vector); (ii) a cAMP-responsive element-luciferase reporter gene (CRE6X-luc), and (iv) β-galactosidase as a control. Cells were incubated with or without the selected peptide agonist in serum-free medium for 6 h. Luciferase activity was quantified by using Steadylite reagent (Perkin-Elmer). A β-galactosidase assay then was performed after adding the enzyme substrate 2-nitrophenyl β-d-galactopyranoside.
Cellular assays for receptor binding and intracellular signaling were carried out with the compounds of the invention. Briefly, HEK 293 cells were transiently transfected with cDNAs encoding (i) GLP-1R (or the empty expression vector), (ii) the CRE6x-LUC reporter gene (which senses cAMP production triggered by receptor stimulation), and (iii) β-galactosidase (as a control for transfection efficiency). After transfection for 24 h, cells were incubated with a peptide at various concentrations (or control/blank) in serum-free medium for 6 h. The cells were then lysed, SteadyLite reagent (PerkinElmer) is added, and luciferase activity is measured in a TopCount NXT HTS plate luminometer. After further incubation with a chromogenic substrate (2-nitrophenyl β-D-galactopyranoside), optical density at 420 nm is determined by spectrophotometry, as a control to correct for interwell transfection variability. Sigmoidal concentration-response curves of GLP-1R ligand activity is calculated to determine potency.
Plotting concentration versus the luciferase activity yielded quantitative parameters for combined binding (potency) and signaling (efficacy) in a single step. […] DPP4 treated peptides: 10 μl of 0.26 mM peptide were incubated with 2 μL DPP4 in buffer ±DMSO for 18 hrs. Control peptides: 10 μl of 0.26 mM peptide was added to buffer ±DMSO. The final DMSO concentration was the same for all peptides and all peptides were diluted to 0.26 mM concentrations for the DPP4 assay.
In general terms: A reporter such as luciferase makes a cellular process visible.
For `CC[C@H](C)[C@H](NC(=O)[C@H](Cc1ccccc1)NC(=O)[C@H](CCC(=O)O)NC(=O)[C@H](CCCCN)NC(=O)[C@H](C)NC(=O)[C@H](C)NC(=O)[C@H](CCC(N)=O)NC(=O)CNC(=O)[C@H](CCC(=O)O)NC(=O)[C@H](CC(C)C)NC(=O)[C@H](Cc1ccc(O)cc1)NC(=O)[C@H](CO)NC(=O)[C@H](CO)NC(=O)[C@@H](NC(=O)[C@H](CC(=O)O)NC(=O)[C@H](CO)NC(=O)[C@@H](NC(=O)[C@H](Cc1ccccc1)NC(=O)[C@@H](NC(=O)CNC(=O)[C@H](CCC(=O)O)NC(=O)[C@H](C)NC(=O)[C@H](Cc1c[nH]cn1)NC[C@H](C)N)[C@@H](C)O)[C@@H](C)O)C(C)C)C(=O)N[C@@H](C)C(=O)N[C@@H](Cc1c[nH]c2ccccc12)C(=O)N[C@@H](CC(C)C)C(=O)N[C@H](C(=O)N[C@@H](CCCCN)C(=O)NCC(=O)N[C@@H](CCCNC(=N)N)C(N)=O)C(C)C`, it took 2.6 pM to reach a half-maximal effect (EC50).

Staying with this test, now noted: Receptor GLP-1R; agonist potency; read-out: EC50.
With `CCN[C@@H](Cc1c[nH]cn1)C(=O)N[C@@H](C)C(=O)N[C@@H](CCC(=O)O)C(=O)NCC(=O)N[C@H](C(=O)N[C@@H](Cc1ccccc1)C(=O)N[C@H](C(=O)N[C@@H](CO)C(=O)N[C@@H](CC(=O)O)C(=O)N[C@H](C(=O)N[C@@H](CO)C(=O)N[C@@H](CO)C(=O)N[C@@H](Cc1ccc(O)cc1)C(=O)N[C@@H](CC(C)C)C(=O)N[C@@H](CCC(=O)O)C(=O)NCC(=O)N[C@@H](CCC(N)=O)C(=O)N[C@@H](C)C(=O)N[C@@H](C)C(=O)N[C@@H](CCCCN)C(=O)N[C@@H](CCC(=O)O)C(=O)N[C@@H](Cc1ccccc1)C(=O)N[C@H](C(=O)N[C@@H](C)C(=O)N[C@@H](Cc1c[nH]c2ccccc12)C(=O)N[C@@H](CC(C)C)C(=O)N[C@H](C(=O)N[C@@H](CCCCN)C(=O)NCC(=O)N[C@@H](CCCNC(=N)N)C(N)=O)C(C)C)[C@@H](C)CC)C(C)C)[C@@H](C)O)[C@@H](C)O`, the EC50 came out at 6.4 pM.
Still for that read-out and setting: the value for `CC[C@H](C)[C@H](NC(=O)[C@H](Cc1ccccc1)NC(=O)[C@H](CCC(=O)O)NC(=O)[C@H](CCCCN)NC(=O)[C@H](C)NC(=O)[C@H](C)NC(=O)[C@H](CCC(N)=O)NC(=O)CNC(=O)[C@H](CCC(=O)O)NC(=O)[C@H](CC(C)C)NC(=O)[C@H](Cc1ccc(O)cc1)NC(=O)[C@H](CO)NC(=O)[C@H](CO)NC(=O)[C@@H](NC(=O)[C@H](CC(=O)O)NC(=O)[C@H](CO)NC(=O)[C@@H](NC(=O)[C@H](Cc1ccccc1)NC(=O)[C@@H](NC(=O)CNC(=O)[C@H](CCC(=O)O)NC(=O)[C@H](C)NC(=O)[C@H](Cc1c[nH]cn1)NC(C)C)[C@@H](C)O)[C@@H](C)O)C(C)C)C(=O)N[C@@H](C)C(=O)N[C@@H](Cc1c[nH]c2ccccc12)C(=O)N[C@@H](CC(C)C)C(=O)N[C@H](C(=O)N[C@@H](CCCCN)C(=O)NCC(=O)N[C@@H](CCCNC(=N)N)C(N)=O)C(C)C` was 4.1 pM.
Same read-out and setting: as for `CC[C@H](C)[C@H](NC(=O)[C@H](Cc1ccccc1)NC(=O)[C@H](CCC(=O)O)NC(=O)[C@H](CCCCN)NC(=O)[C@H](C)NC(=O)[C@H](C)NC(=O)[C@H](CCC(N)=O)NC(=O)CNC(=O)[C@H](CCC(=O)O)NC(=O)[C@H](CC(C)C)NC(=O)[C@H](Cc1ccc(O)cc1)NC(=O)[C@H](CO)NC(=O)[C@H](CO)NC(=O)[C@@H](NC(=O)[C@H](CC(=O)O)NC(=O)[C@H](CO)NC(=O)[C@@H](NC(=O)[C@H](Cc1ccccc1)NC(=O)[C@@H](NC(=O)CNC(=O)[C@H](CCC(=O)O)NC(=O)[C@H](C)NC(=O)[C@H](Cc1c[nH]cn1)NCC12CC3CC(CC(C3)C1)C2)[C@@H](C)O)[C@@H](C)O)C(C)C)C(=O)N[C@@H](C)C(=O)N[C@@H](Cc1c[nH]c2ccccc12)C(=O)N[C@@H](CC(C)C)C(=O)N[C@H](C(=O)N[C@@H](CCCCN)C(=O)NCC(=O)N[C@@H](CCCNC(=N)N)C(N)=O)C(C)C`, the figure is 3.9 pM; as for `CC[C@H](C)[C@H](NC(=O)[C@H](Cc1ccccc1)NC(=O)[C@H](CCC(=O)O)NC(=O)[C@H](CCCCN)NC(=O)[C@H](C)NC(=O)[C@H](C)NC(=O)[C@H](CCC(N)=O)NC(=O)CNC(=O)[C@H](CCC(=O)O)NC(=O)[C@H](CC(C)C)NC(=O)[C@H](Cc1ccc(O)cc1)NC(=O)[C@H](CO)NC(=O)[C@H](CO)NC(=O)[C@@H](NC(=O)[C@H](CC(=O)O)NC(=O)[C@H](CO)NC(=O)[C@@H](NC(=O)[C@H](Cc1ccccc1)NC(=O)[C@@H](NC(=O)CNC(=O)[C@H](CCC(=O)O)NC(=O)[C@H](C)NC(=O)[C@H](Cc1c[nH]cn1)NCc1ccc(O)cc1)[C@@H](C)O)[C@@H](C)O)C(C)C)C(=O)N[C@@H](C)C(=O)N[C@@H](Cc1c[nH]c2ccccc12)C(=O)N[C@@H](CC(C)C)C(=O)N[C@H](C(=O)N[C@@H](CCCCN)C(=O)NCC(=O)N[C@@H](CCCNC(=N)N)C(N)=O)C(C)C`, 1 pM.
The same measure, in the same setting: the value for `CC[C@H](C)[C@H](NC(=O)[C@H](Cc1ccccc1)NC(=O)[C@H](CCC(=O)O)NC(=O)[C@H](CCCCN)NC(=O)[C@H](C)NC(=O)[C@H](C)NC(=O)[C@H](CCC(N)=O)NC(=O)CNC(=O)[C@H](CCC(=O)O)NC(=O)[C@H](CC(C)C)NC(=O)[C@H](Cc1ccc(O)cc1)NC(=O)[C@H](CO)NC(=O)[C@H](CO)NC(=O)[C@@H](NC(=O)[C@H](CC(=O)O)NC(=O)[C@H](CO)NC(=O)[C@@H](NC(=O)[C@H](Cc1ccccc1)NC(=O)[C@@H](NC(=O)CNC(=O)[C@H](CCC(=O)O)NC(=O)[C@H](C)NC(=O)[C@H](Cc1c[nH]cn1)NCc1ccc(C2(C(F)(F)F)N=N2)cc1)[C@@H](C)O)[C@@H](C)O)C(C)C)C(=O)N[C@@H](C)C(=O)N[C@@H](Cc1c[nH]c2ccccc12)C(=O)N[C@@H](CC(C)C)C(=O)N[C@H](C(=O)N[C@@H](CCCCN)C(=O)NCC(=O)N[C@@H](CCCNC(=N)N)C(N)=O)C(C)C` was 123 pM; that for `CC[C@H](C)[C@H](NC(=O)[C@H](Cc1ccccc1)NC(=O)[C@H](CCC(=O)O)NC(=O)[C@H](CCCCN)NC(=O)[C@H](C)NC(=O)[C@H](C)NC(=O)[C@H](CCC(N)=O)NC(=O)CNC(=O)[C@H](CCC(=O)O)NC(=O)[C@H](CC(C)C)NC(=O)[C@H](Cc1ccc(O)cc1)NC(=O)[C@H](CO)NC(=O)[C@H](CO)NC(=O)[C@@H](NC(=O)[C@H](CC(=O)O)NC(=O)[C@H](CO)NC(=O)[C@@H](NC(=O)[C@H](Cc1ccccc1)NC(=O)[C@@H](NC(=O)CNC(=O)[C@H](CCC(=O)O)NC(=O)[C@H](C)NC(=O)[C@H](Cc1c[nH]cn1)NC[C@@H](O)[C@@H](O)[C@H](O)[C@H](O)CO)[C@@H](C)O)[C@@H](C)O)C(C)C)C(=O)N[C@@H](C)C(=O)N[C@@H](Cc1c[nH]c2ccccc12)C(=O)N[C@@H](CC(C)C)C(=O)N[C@H](C(=O)N[C@@H](CCCCN)C(=O)NCC(=O)N[C@@H](CCCNC(=N)N)C(N)=O)C(C)C` was 3200 pM; that for `CC[C@H](C)[C@H](NC(=O)[C@H](Cc1ccccc1)NC(=O)[C@H](CCC(=O)O)NC(=O)[C@H](CCCCN)NC(=O)[C@H](C)NC(=O)[C@H](C)NC(=O)[C@H](CCC(N)=O)NC(=O)CNC(=O)[C@H](CCC(=O)O)NC(=O)[C@H](CC(C)C)NC(=O)[C@H](Cc1ccc(O)cc1)NC(=O)[C@H](CO)NC(=O)[C@H](CO)NC(=O)[C@@H](NC(=O)[C@H](CC(=O)O)NC(=O)[C@H](CO)NC(=O)[C@@H](NC(=O)[C@H](Cc1ccccc1)NC(=O)[C@@H](NC(=O)CNC(=O)[C@H](CCC(=O)O)NC(=O)[C@H](C)NC(=O)[C@H](Cc1c[nH]cn1)NCC(C)C)[C@@H](C)O)[C@@H](C)O)C(C)C)C(=O)N[C@@H](C)C(=O)N[C@@H](Cc1c[nH]c2ccccc12)C(=O)N[C@@H](CC(C)C)C(=O)N[C@H](C(=O)N[C@@H](CCCCN)C(=O)NCC(=O)N[C@@H](CCCNC(=N)N)C(N)=O)C(C)C` [drawing 47] was 3.7 pM.
On to `CC[C@H](C)[C@H](NC(=O)[C@H](Cc1ccccc1)NC(=O)[C@H](CCC(=O)O)NC(=O)[C@H](CCCCN)NC(=O)[C@H](C)NC(=O)[C@H](C)NC(=O)[C@H](CCC(N)=O)NC(=O)CNC(=O)[C@H](CCC(=O)O)NC(=O)[C@H](CC(C)C)NC(=O)[C@H](Cc1ccc(O)cc1)NC(=O)[C@H](CO)NC(=O)[C@H](CO)NC(=O)[C@@H](NC(=O)[C@H](CC(=O)O)NC(=O)[C@H](CO)NC(=O)[C@@H](NC(=O)[C@H](Cc1ccccc1)NC(=O)[C@@H](NC(=O)CNC(=O)[C@H](CCC(=O)O)NC(=O)[C@H](C)NC(=O)[C@H](Cc1c[nH]cn1)NCc1ccccc1)[C@@H](C)O)[C@@H](C)O)C(C)C)C(=O)N[C@@H](C)C(=O)N[C@@H](Cc1c[nH]c2ccccc12)C(=O)N[C@@H](CC(C)C)C(=O)N[C@H](C(=O)N[C@@H](CCCCN)C(=O)NCC(=O)N[C@@H](CCCNC(=N)N)C(N)=O)C(C)C` [drawing 51], for which the EC50 was found to be 4.4 pM.

A word on the EC50: it is the concentration needed to bring the measured effect to its halfway point.
